# Measurements taken from patent US6403629B2, “Heterocyclic compounds for therapeutic use” (J.B. Chemical and Pharmaceuticals Limited, priority 2000, dated 2002).
row,melting point [°C],SMILES
1,83,"Cc1ccc(-c2cc(C(F)(F)F)nn2-c2ccc(F)cc2F)cc1 [Example 2C, 1-(2,4-Difluorophenyl)-5-(4-methylphenyl)-3-(trifluoromethyl)pyrazole]"
2,45,"Cc1ccc(-c2cc(C(F)(F)F)nn2-c2cc(C)ccc2F)cc1 [Example 2H, 1-(2-Fluoro-5-methylphenyl)-5-(4-methylphenyl)-3-(trifluoromethyl)pyrazole]"
